Assay in all cases: inhibition of tumour cell growth, NCI panel, 48 h
The test system of test [1] is 786-0 renal.
Test [2] has as its system A498 renal.
Test [3] relates to ACHN renal.
The subject of test [4] is HCT-15 colon.
In test [5] the test system is HT29 colon.
The subject of test [6] is LOX IMVI melanoma.
Test [7] deals with NCI-H522 lung.
For test [8], the system named is OVCAR-3 ovarian.
The test system of test [9] is RXF 393 renal.
For test [10], the system named is SK-MEL-2 melanoma.
Test [11] concerns SR leukemia.
In test [12] the test system is TK-10 renal.
Test [13] has as its system UACC-257 melanoma.
The subject of test [14] is CCRF-CEM leukemia.

The structures appear in SMILES notation.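 96-well plates; 48 h exposure; 5 concentrations. Endpoints by linear interpolation between flanking doses. Not reached: highest tested concentration assigned. Definition used: TGI = concentration required for complete inhibition of growth.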 A value given as a limit tells only on which side of the number the result lay.

With `CS(=O)(=O)c1ccc(-c2cc(-c3ccc(S(C)(=O)=O)cc3)[n+](-c3cc(-c4ccccc4)c([O-])c(-c4ccccc4)c3)c(-c3ccc(S(C)(=O)=O)cc3)c2)cc1`, the TGI in [1], in [2], in test [3], in test [4], in [5] and in test [6] was greater than 100 µM each time. Besides, the TGI in test [7], in test [8], in test [9], in test [10], in [11] and in [12] was greater than 100 µM in each case. The molecule also came in with a TGI in [13] greater than 100 µM.
On to `O=S(=O)(c1ccccc1)N1N=C2c3ccccc3CCC[C@H]2C1c1ccccc1` (stereo partly specified), for which the TGI in [1], in test [2], in test [3], in test [14], in test [4] and in test [5] was greater than 100 µM each time. Also, the TGI in test [6], in [7], in test [8], in [9], in test [10] and in test [11] was greater than 100 µM each time. Also, the TGI in [12] and in [13] was greater than 100 µM each time.
For `CC(Oc1ccc(OCC2CCCCC2)cc1)C(=O)OCC(=O)c1ccc(-c2ccccc2)cc1` (stereo unspecified), the TGI in test [1], in [2], in test [3], in test [14], in test [4] and in test [5] was greater than 100 µM throughout. The TGI in [6], in [7], in test [8], in [9], in test [10] and in test [12] was greater than 100 µM each time. This molecule gave a TGI in test [13] greater than 100 µM.
Take `COc1ccc(/C=C(\C(C)=O)C(=O)Nc2ccccc2)cc1`: the TGI in [1], in test [3], in [14], in [4], in test [5] and in [6] was greater than 100 µM in each case. Moreover, the TGI in test [7], in test [8], in test [9], in test [10], in test [11] and in test [12] was greater than 100 µM in each case. Also, in [13], the TGI is greater than 100 µM.
With `COc1cccc(C2CC23C(=O)NC(=O)NC3=O)c1` (stereo unspecified), the TGI in test [1], in test [2], in [3], in test [14], in [4] and in [5] was greater than 100 µM each time. The TGI in test [6], in test [7], in test [8], in [10], in test [11] and in test [12] was greater than 100 µM throughout. In [13], this molecule registered a TGI greater than 100 µM.
For `COC(=O)[C@@]1(C)/C(=N/NS(=O)(=O)c2ccc(C)cc2)CCC[C@@H]1C`, the TGI in test [1] was greater than 100 µM; in test [2], greater than 100 µM; in test [3], greater than 100 µM; in test [14] it was greater than 100 µM; in test [4] it was 31.9 µM; in test [5] it was greater than 100 µM. Also, the TGI in [6] was 27.5 µM; in test [7], greater than 100 µM; in test [8], greater than 100 µM; in test [9], greater than 100 µM; in test [10], greater than 100 µM; in test [11], 43.6 µM. Moreover, the TGI in test [12] and in test [13] was greater than 100 µM in each case.
With `CC1(C)CC(=O)CC(=Nc2ccc([N+](=O)[O-])cc2)C1`, the TGI in [1] is greater than 100 µM; in [2] it was greater than 100 µM; in [3] it was greater than 100 µM; in [14], 60.8 µM; in test [4], greater than 100 µM; in test [5], greater than 100 µM. Besides, the TGI in test [6] was 38.8 µM; in test [7], greater than 100 µM; in test [8], greater than 100 µM; in [9] it was greater than 100 µM; in [10], greater than 100 µM; in test [11], 88.5 µM. In addition, the TGI in test [12] and in test [13] was greater than 100 µM each time.
For the molecule `C=C(C)C1CCC2(C)CC1c1c(c(C)cc3c1[nH]c1ccccc13)O2` (stereo unspecified), the TGI in [1], in [3], in test [14], in test [4], in test [5] and in test [6] was greater than 25 µM throughout. Also, the TGI in test [7], in test [8], in test [10] and in [11] was greater than 25 µM each time.
For the molecule `Cc1nn(C(=O)CC(=O)Nc2ccc(Cl)cc2)c(C)c1N=Nc1ccccc1C(=O)O`, the TGI in [1], in [2], in [14], in [4], in test [5] and in test [6] was greater than 100 µM each time. Also, the TGI in test [7], in [8], in [10], in test [12] and in test [13] was greater than 100 µM each time.
Turning to `CCCCC/C=C1\CCC(CN(C)C)C1=O` (stereo unspecified), the TGI came to 7.02 µM in test [1]; 27.3 µM in [3]; 18.5 µM in [14]; 10 µM in test [4]; 62.3 µM in test [5]; 20.6 µM in test [6]. Also, the TGI was 13.4 µM in [7]; 30.7 µM in test [8]; 34.7 µM in test [10]; 21.6 µM in test [11]; greater than 40.1 µM in test [12]; 32.2 µM in test [13].
In the case of `CN(C)CCNC(=O)c1cccc2c(Nc3ccc(S(=O)(=O)N=C(N)N)cc3)c3ccccc3nc12`, the TGI in [1] is 60 µM; in test [3] it was 61.1 µM; in [14] it was 30.2 µM; in test [4], greater than 100 µM; in test [5], greater than 100 µM; in [6], 20.8 µM. For the same molecule, the TGI in test [7] is 17.3 µM; in test [9], greater than 100 µM; in [10] it was 38.5 µM; in [11], greater than 100 µM; in test [12], greater than 100 µM.
For `CCOC(=O)C1SC(=Nc2ccccc2)N=C1C` (stereo unspecified), the TGI in test [1], in [2], in test [3], in test [4], in test [5] and in test [6] was greater than 100 µM throughout. Moreover, the TGI in test [7], in [8], in test [9], in test [10], in test [11] and in test [12] was greater than 100 µM each time. In test [13], this molecule displayed a TGI greater than 100 µM.
For `CCOC1c2cc(C(C)C)c(O)c(O)c2[C@@]23CCCC(C)(C)C2C1OC3=O` (stereo partly specified), the TGI in [1], in test [3], in [14], in test [4], in [5] and in test [6] was greater than 100 µM throughout. Also, the TGI in test [7] is 98.6 µM; in test [8], greater than 100 µM; in test [9], greater than 100 µM; in [10] it was greater than 100 µM; in test [11], greater than 100 µM; in test [12] it was greater than 100 µM. Further, the TGI in test [13] was greater than 100 µM.
On to `C[N+](C)(C)CC1CCC/C1=N\OC(=O)c1ccccc1` (stereo unspecified), for which the TGI in [1], in test [2], in [3], in test [14], in test [4] and in [5] was greater than 100 µM each time. For the same molecule, the TGI in [6], in [7], in [8], in test [9], in test [10] and in test [11] was greater than 100 µM throughout. In [13], this molecule gave a TGI greater than 100 µM.
With `CCOC(=O)/C(=C/c1ccc(N(C)C)cc1)N(CC)CC`, the TGI in test [1] is greater than 100 µM; in test [3], greater than 100 µM; in [14] it was 91.9 µM; in test [4], greater than 100 µM; in test [6], 78.5 µM; in [7], greater than 100 µM. Further, the TGI in test [8], in [10], in [11], in test [12] and in test [13] was greater than 100 µM each time.
As to `Cn1cnnc1Sc1c([N+](=O)[O-])ncn1C`, the TGI in test [1], in test [2], in test [3], in test [14], in test [5] and in [6] was greater than 100 µM each time. Besides, the TGI in test [7] was 25.6 µM; in test [8], greater than 100 µM; in test [10], greater than 100 µM; in test [11], greater than 100 µM; in test [12], greater than 100 µM; in test [13], greater than 100 µM.
For `O=[N+]([O-])c1ccc(-c2cnc3ccccn23)cc1`, the TGI in test [1], in test [2], in test [3], in [14], in test [4] and in [5] was greater than 100 µM each time. Further, the TGI in test [6], in test [7], in [8], in [9], in [10] and in [11] was greater than 100 µM each time. Also, the TGI in test [13] is greater than 100 µM.
Take `COc1ccc(C(C#N)NNC(=O)Cc2ccccc2)cc1OC` (stereo unspecified): the TGI in test [1], in test [3], in test [14], in test [4], in test [5] and in test [6] was greater than 100 µM throughout. The TGI in test [7], in [9], in [10], in [11], in [12] and in [13] was greater than 100 µM each time.
Regarding `O=C(CSc1c2ccccc2nc2ccccc12)Nc1ccccc1-c1ccccc1NC(=O)CSc1c2ccccc2nc2ccccc12`, the TGI in test [1] is 69.4 µM; in test [2], greater than 93.4 µM; in test [3], greater than 100 µM; in test [14], greater than 78.7 µM; in [4], 66.6 µM; in test [5] it was greater than 100 µM. In addition, the TGI in test [6] was 39.1 µM; in test [7], 37.2 µM; in test [8], 31 µM; in test [9], 52 µM; in test [10] it was 45.3 µM; in test [11] it was greater than 31.6 µM. The TGI in [12] is greater than 100 µM; in test [13] it was 75.8 µM.
Take `COC(=O)C(C(=O)Cc1ccccc1[N+](=O)[O-])C(=O)OC`: the TGI in [1], in [3], in test [14], in test [4], in test [5] and in [6] was greater than 100 µM in each case. Moreover, the TGI in [7], in test [8], in test [9], in test [10], in [11] and in [12] was greater than 100 µM throughout. Further, the TGI in test [13] was greater than 100 µM.
For the molecule `CC(C)=CC1CC(=[N+]=[N-])C(=O)C1(C)C` (stereo unspecified), the TGI in test [1] is greater than 100 µM; in test [2] it was greater than 100 µM; in test [3] it was greater than 100 µM; in test [14] it was greater than 83.7 µM; in [4] it was greater than 100 µM; in test [5], greater than 31.6 µM. Besides, the TGI was greater than 100 µM in test [6]; greater than 100 µM in test [7]; greater than 100 µM in test [8]; greater than 31.6 µM in test [9]; greater than 100 µM in test [10]; 44.4 µM in test [11]. Also, the TGI in test [12] and in test [13] was greater than 100 µM throughout.

The values above are taken from PubChem BioAssay (NCI).
